Test results taken from PMC4342408 (Structure(London, England:1993), 2014).
Where a chain is given by its changes, count along the chain named.

Assays:
HYPE [1] = biological target: T1, HYPE (Homo sapiens, UniProt Q9BVA6); experiment: ITC; crystal structure; thermal shift; format: binding
T1 construct: gene FICD; residues 103-445
T1 sequence (Q9BVA6 103-445): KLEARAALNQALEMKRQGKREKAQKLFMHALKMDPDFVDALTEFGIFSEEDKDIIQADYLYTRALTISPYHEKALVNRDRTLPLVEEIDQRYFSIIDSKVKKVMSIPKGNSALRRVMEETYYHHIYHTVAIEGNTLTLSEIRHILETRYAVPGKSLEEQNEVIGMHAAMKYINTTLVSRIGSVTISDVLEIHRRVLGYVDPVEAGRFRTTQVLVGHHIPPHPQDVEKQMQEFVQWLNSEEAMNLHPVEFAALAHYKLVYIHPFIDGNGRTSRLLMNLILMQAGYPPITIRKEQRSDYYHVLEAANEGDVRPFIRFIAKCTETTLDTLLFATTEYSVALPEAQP

HYPE [2] = biological target: T2, HYPE (Homo sapiens, UniProt Q9BVA6, E234G); experiment: ITC; crystal structure; thermal shift; format: binding; design: gene FICD; residues 103-445
T2 sequence (Q9BVA6 103-445 E234G): T1 sequence (Q9BVA6 103-445) with E132G

HYPE [3] = biological target: T3, HYPE (Homo sapiens, UniProt Q9BVA6, E234G); experiment: differential scanning fluorimetry (thermal shift), […] ligand; format: binding
T3 construct: gene FICD; 172–434
T3 sequence (Q9BVA6 172-434 E234G): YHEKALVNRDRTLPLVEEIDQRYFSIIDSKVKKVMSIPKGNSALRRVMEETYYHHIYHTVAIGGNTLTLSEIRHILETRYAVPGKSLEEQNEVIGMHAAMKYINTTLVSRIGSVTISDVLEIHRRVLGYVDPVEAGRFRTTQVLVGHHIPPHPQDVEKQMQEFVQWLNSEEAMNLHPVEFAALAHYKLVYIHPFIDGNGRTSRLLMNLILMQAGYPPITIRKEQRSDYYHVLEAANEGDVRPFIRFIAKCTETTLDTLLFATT

[4] = biological target: wild-type HYPE construct lacking the first 102 amino-acid residues (construct used for crystallization) (human) (UniProt Q9BVA6); experiment: SAXS; small angle X-ray scattering of soluble HYPE constructs in solution; methods in Supplemental Experimental Procedures
HYPE [5] = biological target: T2, HYPE; experiment: crystal structure ([…] Å); thermal shift; format: binding; design: gene FICD; TPR-motifs, linker and FIC domain (lacking first 102 residues)
[6] = biological target: the molecule itself; experiment: SEC; analytical gel filtration of purified HYPE constructs

Nc1ncnc2c1ncn2[C@@H]1O[C@H](COP(=O)(O)OP(=O)(O)O)[C@@H](O)[C@H]1O [ADP]
Kd (HYPE [1]): 1500 nM
Kd (HYPE [2]): 160 nM

O=c1ccn([C@@H]2O[C@H](CO[P@@](=O)(O)O[P@@](=O)(O)OP(=O)(O)O)[C@@H](O)[C@H]2O)c(=O)[nH]1 (stereo in doubt) [uridine triphosphate]
differential scanning fluorimetry (thermal shift), 200 μM ligand (HYPE [3]): a less strong binding of cytidine triphosphate and uridine triphosphate (Figure 6A)

Nc1nc2c(ncn2[C@@H]2O[C@H](COP(=O)(O)OP(=O)(O)OP(=O)(O)O)[C@@H](O)[C@H]2O)c(=O)[nH]1 [guanosine-5'-triphosphate]
differential scanning fluorimetry (thermal shift), 200 μM ligand (HYPE [3]): showed similar binding of ATP and guanosine-5'-triphosphate

wild-type HYPE construct lacking the first 102 amino-acid residues (construct used for crystallization) (from UniProt Q9BVA6 103-458) (domain or fragment)
stoichiometry N [4]: 2

Nc1ncnc2c1ncn2C1OC(COP(=O)(O)OP(=O)(O)OP(=O)(O)O)C(O)C1O (centres unmarked) [ATP]
crystal structure (2.7 Å); thermal shift (HYPE [5]): we have also obtained structures with the ATP cofactor bound to an E234G variant

B1: HYPE (172–445), containing the linker helix and FIC domain (domain or fragment, human, UniProt Q9BVA6 172-445, looked up)
chain: YHEKALVNRDRTLPLVEEIDQRYFSIIDSKVKKVMSIPKGNSALRRVMEETYYHHIYHTVAIEGNTLTLSEIRHILETRYAVPGKSLEEQNEVIGMHAAMKYINTTLVSRIGSVTISDVLEIHRRVLGYVDPVEAGRFRTTQVLVGHHIPPHPQDVEKQMQEFVQWLNSEEAMNLHPVEFAALAHYKLVYIHPFIDGNGRTSRLLMNLILMQAGYPPITIRKEQRSDYYHVLEAANEGDVRPFIRFIAKCTETTLDTLLFATTEYSVALPEAQP
notes: human HYPE (FICD), residues 172-445: linker helix and FIC domain; cloned into pOPINS; also called ΔTPR; HYPE lacking TPR-motifs; source: E. coli C41(DE3), purified (Ni2+ chelating, Q-sepharose, gel filtration)
binding result [6]: binds

B2: HYPE variant (103–434), containing TPR-motifs, linker, and FIC domain (domain or fragment, human, UniProt Q9BVA6 103-434, looked up)
chain: KLEARAALNQALEMKRQGKREKAQKLFMHALKMDPDFVDALTEFGIFSEEDKDIIQADYLYTRALTISPYHEKALVNRDRTLPLVEEIDQRYFSIIDSKVKKVMSIPKGNSALRRVMEETYYHHIYHTVAIEGNTLTLSEIRHILETRYAVPGKSLEEQNEVIGMHAAMKYINTTLVSRIGSVTISDVLEIHRRVLGYVDPVEAGRFRTTQVLVGHHIPPHPQDVEKQMQEFVQWLNSEEAMNLHPVEFAALAHYKLVYIHPFIDGNGRTSRLLMNLILMQAGYPPITIRKEQRSDYYHVLEAANEGDVRPFIRFIAKCTETTLDTLLFATT
notes: human HYPE (FICD), residues 103-434: TPR-motifs (105-135, 140-170), linker (170-215), FIC domain (215-432); cloned into pOPINS; wild type; also called HYPE (103-434); source: E. coli C41(DE3), purified (Ni2+ chelating, Q-sepharose, gel filtration)
stoichiometry N [6]: 2
